Measurements from patent US9290507B2, “B-RAF kinase inhibitors” (Boehringer Ingelheim International GmbH, priority 2010, dated 2016).

Molecular target: B-Raf (V600E)-kinase (Homo sapiens (Human), UniProt P15056, V600E)
Assay: Kinase test B-Raf (V600E)
Format: biochemical
Conditions: 1 h preincubation, 250 μM ATP
Method: In a dilution series 10 μL/well of test substance solution are placed in a multiwell plate. The dilution series is selected so that generally a range of concentrations of 2 μM to 0.119 nM or 0.017 nM is covered. If necessary the initial concentration of 2 μM is changed to 50 μM, 10 μM or 0.4 μM or 0.2857 μM and further dilution is carried out accordingly. The final concentration of DMSO is 5%. 10 μL/well of the B-Raf (V600E)-kinase solution are pipetted in (containing 0.5 ng B-Raf (V600E)-kinase (e.g. from Upstate) in 20 mM Tris-HCl pH 7.5, 0.1 mM EDTA, 0.1 mM EGTA, 0.286 mM sodium orthovanadate, 10% glycerol, 1 mg/mL bovine serum albumin, 1 mM dithiothreitol) and the mixture is incubated for 1 h at RT under with shaking. The kinase reaction is started by the addition of 20 μL/well ATP solution [final concentration: 250 μM ATP, 30 mM Tris-HCl pH 7.5, 0.02% Brij, 0.2 mM sodium orthovanadate, 10 mM magnesium acetate, 0.1 mM EGTA, phosphatase cocktail (Sigma, #P2850, dilution recommended by the manufacturer)] and 10 μL/well MEK1 solution [containing 50 ng biotinylated MEK1 (prepared from purified MEK1 according to standard procedure, e.g. with EZ-Link Sulpho-NHS-LC-Biotin reagent, Pierce, #21335)] and carried out for 60 min at RT with constant shaking. The reaction is stopped by the addition of 12 μL/well of a 100 mM EDTA solution and incubation is continued for a further 5 min. 55 μL/well of the reaction solution are transferred into a streptavidin-coated plate (e.g. Streptawell HighBond, Roche, #11989685001) and shaken gently for 1 h at RT, in order to bind biotinylated MEK1 to the plate. After elimination of the liquid the plate is washed five times with 200 μL/well of 1×PBS and 100 μL/well solution of primary antibody plus europium-labelled secondary antibody [Anti Phospho-MEK (Ser217/221), Cell Signaling, #9121 and Eu-N1 labelled goat-anti-rabbit antibody, Perkin Elmer, #AD0105] is added, the primary antibody is diluted 1:2000 and the secondary antibody is diluted to 0.4-0.5 μg/mL in Delfia Assay Buffer (Perkin Elmer, #1244-111). After 1 h shaking at RT the solution is poured away and washed five times with 200 μL/well Delfia Wash Buffer (Perkin Elmer, #4010-0010/#1244-114). After the addition of 200 μL/well Enhancement Solution (Perkin Elmer, #4001-0010/#1244-105) the mixture is shaken for 10 min at RT and then measured in a Wallac Victor using the program “Delfia Time Resolved Fluorescence (Europium)”. IC50 values are obtained from these dosage-activity curves using a software program (GraphPadPrizm).

Sequence of B-Raf (V600E)-kinase (P15056 whole entry V600E): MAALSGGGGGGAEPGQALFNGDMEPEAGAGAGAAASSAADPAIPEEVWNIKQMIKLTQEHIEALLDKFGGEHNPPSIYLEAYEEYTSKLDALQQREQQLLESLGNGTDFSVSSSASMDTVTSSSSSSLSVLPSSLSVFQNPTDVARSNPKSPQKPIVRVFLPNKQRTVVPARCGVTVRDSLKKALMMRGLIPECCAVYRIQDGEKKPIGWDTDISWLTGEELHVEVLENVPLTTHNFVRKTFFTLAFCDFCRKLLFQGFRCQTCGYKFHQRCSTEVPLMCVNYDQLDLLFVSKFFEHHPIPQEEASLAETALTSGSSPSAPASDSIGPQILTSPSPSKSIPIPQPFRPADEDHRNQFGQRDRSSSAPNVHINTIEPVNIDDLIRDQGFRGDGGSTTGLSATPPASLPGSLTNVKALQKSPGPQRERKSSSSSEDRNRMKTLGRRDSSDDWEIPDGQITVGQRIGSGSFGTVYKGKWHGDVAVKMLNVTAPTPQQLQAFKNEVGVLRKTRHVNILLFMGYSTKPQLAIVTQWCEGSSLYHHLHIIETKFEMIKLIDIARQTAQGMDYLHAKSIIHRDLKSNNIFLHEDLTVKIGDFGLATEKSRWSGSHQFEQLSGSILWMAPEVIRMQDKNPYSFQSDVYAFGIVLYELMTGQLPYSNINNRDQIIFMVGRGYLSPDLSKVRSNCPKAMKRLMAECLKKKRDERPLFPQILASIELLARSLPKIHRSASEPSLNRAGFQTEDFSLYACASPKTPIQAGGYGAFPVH

SMILES	IC50 [µM]
CCN1CCN(c2cncc(-c3cn(-c4cc(NC(=O)c5cc(C)n(C(C)(C)C)n5)ccc4C)nn3)c2)CC1 [II-35]	0.01
Cc1ccc(NC(=O)c2cc(C)n(C(C)(C)C)n2)cc1-n1cc(-c2cncc(N3CCN(C(C)C)CC3)c2)nn1 [II-36]	0.013
CCCN1CCN(c2cncc(-c3cn(-c4cc(NC(=O)c5cc(C)n(C(C)(C)C)n5)ccc4C)nn3)c2)CC1 [II-37]	0.011
Cc1ccc(NC(=O)c2cc(C)n(C(C)(C)C)n2)cc1-n1cc(-c2cncc(N3CCN(C)CC3)c2)nn1 [II-38]	0.011
Cc1ccc(NC(=O)c2cc(C)n(C(C)(C)C)n2)cc1-n1cc(-c2cncc(N3CCCN(C)CC3)c2)nn1 [II-39]	0.009
Cc1ccc(NC(=O)c2cc(CNC(C)(C)C)c(C(C)(C)C)o2)cc1-n1cc(-c2cncc(N3CCOCC3)c2)nn1 [II-40]	0.011
Cc1ccc(NC(=O)c2cc(CNC3CCN(C)CC3)c(C(C)(C)C)o2)cc1-n1cc(-c2cncc(N3CCOCC3)c2)nn1 [II-41]	0.014
Cc1ccc(NC(=O)c2cc(CN3CCN(C)CC3)c(C(C)(C)C)o2)cc1-n1cc(-c2cncc(N3CCOCC3)c2)nn1 [II-42]	0.016
Cc1ccc(NC(=O)c2cc(CN(C)CCN(C)C)c(C(C)(C)C)o2)cc1-n1cc(-c2cncc(N3CCOCC3)c2)nn1 [II-43]	0.036
Cc1ccc(NC(=O)c2cc(CN(C)C)c(C(C)(C)C)o2)cc1-n1cc(-c2cncc(N3CCOCC3)c2)nn1 [II-44]	0.011
Cc1ccc(NC(=O)c2cc(CNCCN(C)C)c(C(C)(C)C)o2)cc1-n1cc(-c2cncc(N3CCOCC3)c2)nn1 [II-45]	0.01
